Data: patent US20240366589A1, “NHE3-BINDING COMPOUNDS AND METHODS FOR INHIBITING PHOSPHATE TRANSPORT” (Ardelyx, Inc., priority 2013, published 2024)

Legend:
Human NHE3 = molecular target: T1, Human NHE3 (Homo sapiens, UniProt P48764); assay: Cell-based NHE3 activity under prompt conditions (OK cells, BCECF pH recovery), human NHE3; details: prompt conditions
T1 construct: expressed in transfected cells; host or cells: Opossum kidney (OK) cells (ATCC), electroporation
T1 sequence (P48764 26-834): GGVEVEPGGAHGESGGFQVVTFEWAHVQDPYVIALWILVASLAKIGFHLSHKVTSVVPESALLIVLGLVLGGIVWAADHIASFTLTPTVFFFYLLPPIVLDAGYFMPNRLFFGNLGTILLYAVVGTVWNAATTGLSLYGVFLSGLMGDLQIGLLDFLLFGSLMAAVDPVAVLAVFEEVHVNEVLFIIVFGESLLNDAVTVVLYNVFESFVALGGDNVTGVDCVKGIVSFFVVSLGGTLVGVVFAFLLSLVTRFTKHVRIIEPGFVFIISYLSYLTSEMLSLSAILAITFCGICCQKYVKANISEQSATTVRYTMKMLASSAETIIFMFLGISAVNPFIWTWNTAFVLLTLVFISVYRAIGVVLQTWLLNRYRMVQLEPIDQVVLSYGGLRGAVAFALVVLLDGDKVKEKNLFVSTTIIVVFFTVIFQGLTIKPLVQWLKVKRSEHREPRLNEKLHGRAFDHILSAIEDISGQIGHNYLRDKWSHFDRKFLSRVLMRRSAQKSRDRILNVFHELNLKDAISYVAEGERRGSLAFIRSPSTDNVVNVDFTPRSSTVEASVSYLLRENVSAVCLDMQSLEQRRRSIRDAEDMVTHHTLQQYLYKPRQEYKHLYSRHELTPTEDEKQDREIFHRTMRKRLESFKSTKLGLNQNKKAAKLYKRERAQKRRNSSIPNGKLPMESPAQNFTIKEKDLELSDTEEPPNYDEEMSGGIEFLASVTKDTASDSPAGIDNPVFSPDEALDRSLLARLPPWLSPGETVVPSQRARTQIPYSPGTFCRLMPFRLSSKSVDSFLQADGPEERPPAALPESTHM
Summary of the method: (§1)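 OK cells electroporated with rat or human NHE3 gene, loaded 30 min at room temperature with 5 μM BCECF-AM in NH4Cl-HEPES pH 7.4.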

Rat NHE3 = molecular target: T2, Rat NHE3 (Rattus norvegicus, UniProt P26433); assay: Cell-based NHE3 activity under prompt conditions (OK cells, BCECF pH recovery), rat NHE3; details: prompt conditions
T2 construct: expressed in transfected cells; host or cells: Opossum kidney (OK) cells (ATCC), electroporation
T2 sequence (P26433 29-831): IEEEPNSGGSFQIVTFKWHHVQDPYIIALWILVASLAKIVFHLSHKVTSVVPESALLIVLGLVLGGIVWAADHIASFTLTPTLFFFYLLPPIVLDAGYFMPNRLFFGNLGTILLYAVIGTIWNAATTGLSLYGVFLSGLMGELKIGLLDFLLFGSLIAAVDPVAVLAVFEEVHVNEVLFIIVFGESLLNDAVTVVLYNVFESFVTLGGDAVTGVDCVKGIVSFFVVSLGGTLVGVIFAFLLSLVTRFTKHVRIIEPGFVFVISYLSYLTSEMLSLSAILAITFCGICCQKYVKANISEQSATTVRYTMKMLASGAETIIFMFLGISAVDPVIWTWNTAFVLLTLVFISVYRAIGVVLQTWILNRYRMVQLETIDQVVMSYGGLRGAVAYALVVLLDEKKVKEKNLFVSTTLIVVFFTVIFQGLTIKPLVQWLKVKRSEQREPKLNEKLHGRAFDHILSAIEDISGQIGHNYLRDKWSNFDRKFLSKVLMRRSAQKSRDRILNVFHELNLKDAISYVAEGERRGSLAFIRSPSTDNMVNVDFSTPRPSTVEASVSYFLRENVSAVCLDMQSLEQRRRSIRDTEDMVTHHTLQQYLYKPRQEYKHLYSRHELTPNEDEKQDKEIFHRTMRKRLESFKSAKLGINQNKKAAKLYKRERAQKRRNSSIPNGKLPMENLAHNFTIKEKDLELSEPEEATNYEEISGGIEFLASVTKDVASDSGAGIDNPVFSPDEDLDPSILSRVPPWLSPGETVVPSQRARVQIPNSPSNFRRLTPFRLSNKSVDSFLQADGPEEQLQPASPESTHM
Summary of the method: as §1

[1] = system: absorption of sodium from the intestinal lumen; assay: Inhibition of intestinal sodium absorption: urinary sodium (uNa) 16 h after single oral dose in rats; assay type: in vivo, rat; details: oral gavage, 16 h post-dose
Summary of the method: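 Eight-week-old Sprague-Dawley rats (n=6) given single oral gavage of compound or water vehicle in the late afternoon, then kept in metabolic cages with chow and water ad libitum. Urine collected over 16 h; sodium quantified by ion chromatography and expressed as % of vehicle mean, compared by one-way ANOVA with Dunnett's test.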

[2] = system: absorption of sodium from the intestinal lumen; assay: Fecal form score (FFS) 16 h after oral dose in rats; assay type: in vivo, rat; details: oral gavage, 16 h post-dose, scale 1-5
Summary of the method: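 Eight-week-old Sprague-Dawley rats (n=6) dosed by oral gavage with compound or water vehicle between 4 and 5 PM, then housed in metabolic cages with food and water ad libitum. At 16 h, fecal form scored 1 (normal pellet) to 5 (liquid streams) by two observers; group mean reported.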

[3] = system: phosphorus and calcium levels in the urine of rats; assay: Urinary excretion of phosphate and calcium in rats (16 h overnight urine); assay type: in vivo, rat; details: rats, oral gavage, 16 h post-dose

Compound | Prompt Human NHE3 pIC50 (Human NHE3) | Prompt Rat NHE3 pIC50 (Rat NHE3) | Urine Na % of control ([1]; dose 1 mg/kg) [%] | Urine Na % of control ([1]; dose 3 mg/kg) [%] | Urine Na % of control ([1]; dose 10 mg/kg) [%] | Fecal Form Score average ([2]; dose 1 mg/kg) | Fecal Form Score average ([2]; dose 3 mg/kg) | Fecal Form Score average ([2]; dose 10 mg/kg) | Urine P % of control ([3]; dose 1 mg/kg) [%] | Urine P % of control ([3]; dose 3 mg/kg) [%] | Urine P % of control ([3]; dose 10 mg/kg) [%] | IC50 (Human NHE3; read-out: Prompt Human NHE3 pIC50 (converted)) [µM]
CN1Cc2c(Cl)cc(Cl)cc2[C@H](c2cccc(S(=O)(=O)NCCOCCOCCNC(=O)CCC(N)(CCC(=O)NCCOCCOCCNS(=O)(=O)c3cccc([C@@H]4CN(C)Cc5c(Cl)cc(Cl)cc54)c3)CCC(=O)NCCOCCOCCNS(=O)(=O)c3cccc([C@@H]4CN(C)Cc5c(Cl)cc(Cl)cc54)c3)c2)C1 [compound 88] | 7.93 | 7.07 | 84 | 22 | 21 | 1 | 3 | 5 | 77 | 75 | 69 | –
CCC(=O)NC(CCC(=O)NCCOCCOCCOCCNS(=O)(=O)c1cccc([C@@H]2CN(C)Cc3c(Cl)cc(Cl)cc32)c1)(CCC(=O)NCCOCCOCCOCCNS(=O)(=O)c1cccc([C@@H]2CN(C)Cc3c(Cl)cc(Cl)cc32)c1)CCC(=O)NCCOCCOCCOCCNS(=O)(=O)c1cccc([C@@H]2CN(C)Cc3c(Cl)cc(Cl)cc32)c1 [compound 89] | 7.90 | 7.10 | – | – | 49 | – | – | 3 | – | – | 117 | –
CN1Cc2c(Cl)cc(Cl)cc2[C@H](c2cccc(S(=O)(=O)NCCOCCOCCOCCNC(=O)CCC(N)(CCC(=O)NCCOCCOCCOCCNS(=O)(=O)c3cccc([C@@H]4CN(C)Cc5c(Cl)cc(Cl)cc54)c3)CCC(=O)NCCOCCOCCOCCNS(=O)(=O)c3cccc([C@@H]4CN(C)Cc5c(Cl)cc(Cl)cc54)c3)c2)C1 [compound 90] | 7.85 | 7.20 | 76 | 30 | 38 | 1 | 1 | 5 | 65 | 58 | 20 | –
CN1Cc2c(Cl)cc(Cl)cc2[C@H](c2cccc(S(=O)(=O)NCCOCCOCCOCCNC(=O)CCC(CCC(=O)NCCOCCOCCOCCNS(=O)(=O)c3cccc([C@@H]4CN(C)Cc5c(Cl)cc(Cl)cc54)c3)(CCC(=O)NCCOCCOCCOCCNS(=O)(=O)c3cccc([C@@H]4CN(C)Cc5c(Cl)cc(Cl)cc54)c3)NC(=O)c3ccc(-c4ccc(Cl)cc4)cc3)c2)C1 [compound 91] | <5.00 | 5.30 | – | – | 77 | – | – | 1 | – | – | 56 | –
CCCCCCCCCCC(=O)NC(CCC(=O)NCCOCCOCCNS(=O)(=O)c1cccc([C@@H]2CN(C)Cc3c(Cl)cc(Cl)cc32)c1)(CCC(=O)NCCOCCOCCNS(=O)(=O)c1cccc([C@@H]2CN(C)Cc3c(Cl)cc(Cl)cc32)c1)CCC(=O)NCCOCCOCCNS(=O)(=O)c1cccc([C@@H]2CN(C)Cc3c(Cl)cc(Cl)cc32)c1 [compound 94] | 5.60 | <5.00 | – | – | 67 | – | – | 1 | – | – | 66 | –
CN1Cc2c(Cl)cc(Cl)cc2[C@H](c2cccc(S(=O)(=O)NCCOCCOCCNC(=O)NCCN(CCNC(=O)NCCOCCOCCNS(=O)(=O)c3cccc([C@@H]4CN(C)Cc5c(Cl)cc(Cl)cc54)c3)C(=O)CCOCCOCCOCCOCCOCCOCCOCCOCCOCCC(=O)N(CCNC(=O)NCCOCCOCCNS(=O)(=O)c3cccc([C@@H]4CN(C)Cc5c(Cl)cc(Cl)cc54)c3)CCNC(=O)NCCOCCOCCNS(=O)(=O)c3cccc([C@@H]4CN(C)Cc5c(Cl)cc(Cl)cc54)c3)c2)C1 [compound 95] | 7.00 | 6.60 | – | – | 38 | – | – | 2 | – | – | 111 | –
CN1Cc2c(Cl)cc(Cl)cc2[C@H](c2cccc(S(=O)(=O)NCCOCCOCCNC(=O)CCC(=O)NCCOCCOCCNS(=O)(=O)c3ccc(O[C@H]4c5ccccc5C[C@@H]4N4CCCCC4)cc3)c2)C1 [compound 96] | 8.30 | 7.50 | – | – | 33 | – | – | 1 | – | – | 94 | –
CN1Cc2c(Cl)cc(Cl)cc2[C@H](c2cccc(S(=O)(=O)NCCOCCOCCNC(=O)COCC(=O)NCCOCCOCCNS(=O)(=O)c3ccc(O[C@H]4c5ccccc5C[C@@H]4N4CCCCC4)cc3)c2)C1 [compound 97] | 8.50 | 7.60 | – | – | 64 | – | – | 1 | – | – | 78 | –
O=C(NCCOCCOCCNS(=O)(=O)c1ccc(O[C@H]2c3ccccc3C[C@@H]2N2CCCCC2)cc1)[C@H](O)[C@@H](O)C(=O)NCCOCCOCCNS(=O)(=O)c1ccc(O[C@H]2c3ccccc3C[C@@H]2N2CCCCC2)cc1 [compound 98] | 8.10 | 8.40 | – | – | 83 | – | – | 1 | – | – | 88 | –
O=C(NCCCCNC(=O)NCCOCCOCCNS(=O)(=O)c1ccc(O[C@H]2c3ccccc3C[C@@H]2N2CCCC2)cc1)NCCOCCOCCNS(=O)(=O)c1ccc(O[C@H]2c3ccccc3C[C@@H]2N2CCCC2)cc1 [compound 99] | – | 8.60 | – | – | 41 | – | – | 1 | – | – | 52 | ≥ 10
O=C(NCCOCCOCCNS(=O)(=O)c1ccc(O[C@H]2c3ccccc3C[C@@H]2N2CCCCC2)cc1)c1ccc(C(=O)NCCOCCOCCNS(=O)(=O)c2ccc(O[C@H]3c4ccccc4C[C@@H]3N3CCCCC3)cc2)cc1 [compound 100] | 8.30 | 8.10 | – | – | 57 | – | – | 1 | – | – | 68 | –
O=C(NCCOCCOCCNS(=O)(=O)c1ccc(O[C@H]2c3ccccc3C[C@@H]2N2CCCCC2)cc1)c1cccc(C(=O)NCCOCCOCCNS(=O)(=O)c2ccc(O[C@H]3c4ccccc4C[C@@H]3N3CCCCC3)cc2)c1 [compound 101] | 8.10 | <5.00 | – | – | 64 | – | – | 1 | – | – | 81 | –
